Experimental data reported in article PMC6697720, “Saturation of acyl chains converts cardiolipin from an antagonist to an activator of Toll-like receptor-4” (Cellular and Molecular Life Sciences: CMLS, 2019).

Key:
immortalized BMDMs = test: TNF-α secretion in immortalized BMDMs (WT or TLR4-KO) incubated with CL or LPS; type: cell-based, murine; details: CL alone, overnight, immortalized BMDM
Experimental: Immortalized BMDM were seeded the day before the experiment at 5 × 10^5 cells/mL in 48-well plates (500 μL/well).
After stimulation, supernatants were collected, centrifuged, and assayed for cytokine secretion, while cells were assayed for viability.
TNF-α and IP-10 were quantified in cell supernatants using DuoSet ELISA kits from R&D Systems and human IL-1β using Instant ELISA™ Kit from Invitrogen, according to the manufacturer’s instructions. Absorbance was read with a BioTek Synergy HT Microplate Readers.
(§1) Fig. 3 Saturated but not unsaturated CLs have pro-inflammatory properties. a RAW-Blue™ cells were incubated overnight with the indicated amount of CL or LPS, supernatants were collected, and NF-κB activation quantified via Quanti-Blue™ test and reported here as fold induction as compared to control. Unpaired t test: differences with respect to the control (Ctrl) are not significant if p > 0.05 (no symbol); *p ≤ 0.0007. b Immortalized BMDM cells were incubated overnight with the indicated amount of CL or LPS; supernatants were collected and TNF-α quantified via ELISA assay. c, d Primary human monocytes were incubated overnight with the indicated amount of CL or LPS with or without the NLRP3 inhibitor MCC950, supernatants were collected, and TNF-α and IL-1β were quantified via ELISA assay. Graphs are representative of experiments from six different donors. Unpaired t test: differences with respect to the control (Ctrl) are not significant if p > 0.05 (no symbol); *p ≤ 0.021. Each bar represents the mean + standard deviation of three biological replicates (n = 3). Graphs are representative of at least three independent experiments
(§2) Fig. 4 Saturated CLs are TLR4 agonists. a HEK293 cells were transfected with plasmids encoding murine TLR4, MD2, and CD14 (mTLR4), human TLR4, MD2, and CD14 (hTLR4) or with empty pcDNA3.1 plasmid, MD2 and CD14 (w/o TLR) together with a luciferase reporter plasmid dependent on NF-κB activation and a constitutively active reporter vector-encoding renilla luciferase. Two days after transfection, cells were incubated for 6 h with medium alone (Ctrl) or the indicated amount of CLs or LPS. Luciferase and renilla were quantified in cell lysate, normalized and reported here as fold induction as compared to control. Unpaired t test: differences compared to the control are not significant if p > 0.05(no symbol); *p ≤ 0.005. b WT and TLR4-KO iBMDM cells were incubated overnight with medium (c), LPS or C14:0 CL. For each condition, mTNF-α was measured by ELISA assay. Unpaired t test: differences with respect to the control are not significant if p > 0.05(no symbol); *p ≤ 0.0001. Each bar represents the mean + standard deviation of three biological replicates (n = 3). Graphs are representative of at least three independent experiments

human TLR4/MD2/CD14 = molecular target: T1, human TLR4/MD2/CD14 (Homo sapiens, UniProt O00206+Q9Y6Y9); test: Inhibition of LPS-induced NF-κB luciferase reporter in HEK293 cells transfected with human TLR4/MD2/CD14; type: cell-based; details: for inhibition of LPS-induced signaling (LPS dose-response, 0 to 1000 ng/mL), mode of action: 1 h CL pre-incubation
T1 construct: expressed in transfected cells; host or cells: HEK293 (ATCC CRL1573), transient transfection with jetPEI
Experimental: (§3) Cells were seeded at 4 × 10^4 cells/mL in 96-well plates (200 μL/well) and transiently transfected 4 days later. Expression vectors containing an NF-κB transcription reporter vector-encoding firefly luciferase (10 ng/well pNF-κB-luc from Clontech), and a constitutively active reporter vector-encoding Renilla luciferase (5 ng/well phRG-TK; Promega), together with empty vector (pcDNA3.1 from Invitrogen Cat. N. V79020) and cDNA encoding human membrane CD14 (3 ng/well) and human or murine TLR4 and MD2 (3 ng/well) were mixed with jetPEI (Polyplus transfection Cat.N. 101-10N) and incubated with cells according to the manufacturer’s instructions.
(§4) After treatment supernatants were discarded, cells were washed with PBS and lysed with passive lysis buffer (Promega Cat.N. E1941). Luciferase and Renilla activity on cell lysates were quantified on a BioTek Synergy HT microplate reader using home-made luciferase reagent (20 mM Tricine, 2.67 mM MgSO4·7H2O, 0.265 mM (MgCO3)4Mg(OH)2·5H2O, 0.1 mM EDTA, 33.3 mM DTT, 530 μM ATP, 270 μM Acetyl Coenzyme A (Lithium salt), 470 μM luciferin (Biosynth), pH 7.8, diluted two times in water before use), or coelenterazine (Biosynth) dissolved in ethanol at 1 mg/mL and diluted 500 times in PBS before use as previously described. Firefly and Renilla luciferase activity on cell lysates were normalized, and data were expressed as fold induction as compared to unstimulated conditions.
In contrast to C16:0 and C18:0, C14:0 CL acted as an agonist in murine but not human cells (Fig. 3), a property similar to that of the LPS variant lipid IVa. to establish whether C14:0, like lipid IVa, is a weak human TLR4 antagonist, we tested the ability of all saturated CLs to inhibit signaling induced by LPS over a range of concentrations. For each CL, cells transfected with human TLR4/MD2/CD14 were pre-incubated with medium alone or two different CL concentrations for 1 h, and then washed and incubated for 6 h with increasing amounts of LPS (from 0 to 1000 ng/mL). […] The dose–response curve of LPS was shifted to the right.
(§5) Fig. 6 C14:0 is a competitive human TLR4 antagonist. HEK293 cells were transfected with plasmids encoding hTLR4, hMD2, and hCD14 together with a luciferase reporter plasmid dependent on NF-κB activation and a constitutively active reporter vector-encoding renilla luciferase. Two days after transfection, cells were incubated for 1 h with medium alone or the indicated amount of CLs, then washed and incubated 6 h with increasing amount of LPS. Luciferase and renilla were then quantified in cell lysate, and normalized and reported here as fold induction as compared to control. Each bar represents the mean ± standard deviation of three biological replicates (n = 3). Graphs are representative of at least three independent experiments
as §5, with “7 Unsaturated cardiolipins are” for “6 C14:0 is a”, “antagonists.” for “antagonist.”, “CLs, and” for “CLs,”
To quantify and compare the potency of CLs as inhibitors, we determined IC50 values in HEK293 cells transfected with human TLR4/MD2/CD14, for each of the antagonists (Fig. 8 and Table 1). […]

RAW-Blue cells = test: NF-κB activation (SEAP, Quanti-Blue) by CL or LPS in RAW-Blue cells; type: cell-based, murine; details: CL alone, overnight
Experimental: RAW-Blue™ cells were seeded the day before the experiment at 5 × 10^5 cells/mL in 48-well plates (500 μL/well).
These cells express a secreted embryonic alkaline phosphatase (SEAP) when NF-κB is activated. NF-κB activation was measured by measuring the alkaline phosphatase produced by RAW-Blue™ cells using the Quanti-Blue™ reagent (InvivoGen), according to the manufacturer’s instructions.
as §1

[1] = molecular target: T2, human TLR4, MD2, and CD14 (Homo sapiens, UniProt O00206+Q9Y6Y9); test: NF-κB luciferase reporter activation by CLs in HEK293 cells transfected with human TLR4, MD2 and CD14; type: cell-based
T2 construct: expressed in transfected cells; host or cells: HEK293 (ATCC CRL1573), transient transfection with jetPEI
Experimental: as §3, §4
The first signaling event of these pathways is NF-κB activation through TLR4 activation. To investigate how the individual CD14, TLR4, and MD2 proteins contribute to the responses of cells to CL, we used the HEK transfection model where we can control which protein (including from different species) may be added to the cells and their contribution to CL activation of Nf-κB [21, 30, 31]. We transfected HEK293 cells with human or murine CD14 and MD2 with or without TLR4 and incubated them with saturated CLs for 6 h (Fig. 4a). All three saturated CLs activated murine TLR4. By contrast, only C16:0 and C18:0 activated the human receptor. To further confirm the role of TLR4, we compared TNF-α secretion induced by C14:0 CL in wild-type (WT) or TLR4 knock out (TLR4 KO) immortalized BMDMs. Both LPS and C14:0 CL induced TNF-α secretion in WT but not in TLR4-KO BMDMs (Fig. 4b). TLR4-KO BMDMs were normally responsive to TLR2 ligand Pam3CSK4 (data not shown).
as §2, with “Graphs are representative of at least three independent experiments” left out

[2] = HEK293 hTLR4/hMD2/hCD14, 1 h CL, washed, 6 h LPS, Prism fit of Fig. 8 data

T1 sequence (O00206 24-839): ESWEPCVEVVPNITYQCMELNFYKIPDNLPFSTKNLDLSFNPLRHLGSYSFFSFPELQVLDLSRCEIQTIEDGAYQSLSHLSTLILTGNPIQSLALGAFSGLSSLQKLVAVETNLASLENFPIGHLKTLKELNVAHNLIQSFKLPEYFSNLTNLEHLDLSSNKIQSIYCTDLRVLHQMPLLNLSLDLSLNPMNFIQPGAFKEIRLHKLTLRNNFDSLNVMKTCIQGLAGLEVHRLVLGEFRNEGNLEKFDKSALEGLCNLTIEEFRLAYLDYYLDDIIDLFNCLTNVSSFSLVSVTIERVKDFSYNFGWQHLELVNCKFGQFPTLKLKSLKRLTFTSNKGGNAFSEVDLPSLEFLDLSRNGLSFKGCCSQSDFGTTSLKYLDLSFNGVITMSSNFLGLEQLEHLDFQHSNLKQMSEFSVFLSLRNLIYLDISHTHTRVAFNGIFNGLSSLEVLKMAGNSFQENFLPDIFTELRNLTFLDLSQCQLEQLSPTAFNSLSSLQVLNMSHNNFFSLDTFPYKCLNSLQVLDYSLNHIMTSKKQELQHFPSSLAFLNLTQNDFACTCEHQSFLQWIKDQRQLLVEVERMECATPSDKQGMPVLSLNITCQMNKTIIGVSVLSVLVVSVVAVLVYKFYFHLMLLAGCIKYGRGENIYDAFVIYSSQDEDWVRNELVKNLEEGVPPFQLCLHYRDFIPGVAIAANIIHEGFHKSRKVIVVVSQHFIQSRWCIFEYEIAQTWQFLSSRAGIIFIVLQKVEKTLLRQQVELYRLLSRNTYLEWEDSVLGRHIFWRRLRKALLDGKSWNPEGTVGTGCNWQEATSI
T1 sequence (Q9Y6Y9 19-160): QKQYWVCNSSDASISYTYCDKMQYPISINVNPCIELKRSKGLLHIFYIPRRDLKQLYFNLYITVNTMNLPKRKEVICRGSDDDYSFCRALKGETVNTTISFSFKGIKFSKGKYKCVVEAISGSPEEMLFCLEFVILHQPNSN
T2 sequence (O00206 24-839): as the sequence (O00206 24-839) above
T2 sequence (Q9Y6Y9 19-160): as the sequence (Q9Y6Y9 19-160) above

Compound | TNF-α secretion (immortalized BMDMs) | inhibition of LPS-induced signaling (LPS dose-response, 0 to 1000 ng/mL), mode of action (human TLR4/MD2/CD14; washed, 6 h LPS) | IC50 (human TLR4/MD2/CD14; [2]) [nM] | IC50 (human TLR4/MD2/CD14; HEK293 human TLR4/MD2/CD14) [nM] | difference in potency between C14:1 and C18:1 (human TLR4/MD2/CD14; ratio of IC50 values, Table 1) [fold] | NF-κB activation (RAW-Blue cells) | activation of human TLR4 (NF-κB) ([1]; 6 h incubation) | NF-κB induction in HEK293 cells transfected with TLR4 in the absence of CD14 or MD2 ([1]; hTLR4 without CD14 or without MD2, 6 h)
CCCC/C=C\CCCCCCCC(=O)OC[C@H](COP(=O)(O)OCC(O)COP(=O)(O)OC[C@@H](COC(=O)CCCCCCC/C=C\CCCC)OC(=O)CCCCCCC/C=C\CCCC)OC(=O)CCCCCCC/C=C\CCCC (stereo partly shown) [C14:1 CL] | not | competitive TLR4 antagonists | 77.9 | 77 | 400 | not |  | 
CCCCCCCCCCCCCCCC(=O)OC[C@H](COP(=O)(O)OCC(O)COP(=O)(O)OC[C@@H](COC(=O)CCCCCCCCCCCCCCC)OC(=O)CCCCCCCCCCCCCCC)OC(=O)CCCCCCCCCCCCCCC (stereo partly shown) [C16:0 CL] | induced | did not inhibit |  |  |  | induced | activated | not induced
CCCCCC/C=C\CCCCCCCC(=O)OC[C@H](COP(=O)(O)OCC(O)COP(=O)(O)OC[C@@H](COC(=O)CCCCCCC/C=C\CCCCCC)OC(=O)CCCCCCC/C=C\CCCCCC)OC(=O)CCCCCCC/C=C\CCCCCC (stereo partly shown) [C16:1 CL] | not | competitive TLR4 antagonists | 925 |  |  | not |  | 
CCCCCCCC/C=C\CCCCCCCC(=O)OC[C@H](COP(=O)(O)OCC(O)COP(=O)(O)OC[C@@H](COC(=O)CCCCCCC/C=C\CCCCCCCC)OC(=O)CCCCCCC/C=C\CCCCCCCC)OC(=O)CCCCCCC/C=C\CCCCCCCC (stereo partly shown) [C18:1 CL] | not | competitive TLR4 antagonists | 33500 |  |  | not |  | 
